Among the data in US20240307362A1 (priority 2019, published 2024) are IC50 values, retold here.

Test [1] relates to Ba/F3-EGFR-WT. Description: Ba/F3 cell survival assay, WT EGFR. Format: cell-based.
Test [2] has as its target mutEGFR (D770_N771insSVD) (Homo sapiens (Human), UniProt P00533, INS770SVD). Description: biochemical. Particulars: mutEGFR (D770_N771 insSVD) at 2 mM ATP IC50, 2 mM ATP.
Test [3] relates to Ba/F3-EGFR-insSVD. Description: Ba/F3 cell survival assay, EGFR-insSVD. Format: cell-based. In outline: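 Ba/F3 cells stably expressing WT EGFR or EGFR-insSVD via retrovirus, grown without IL-3 on 10 ng/mL EGF, plated at 4000 cells/well. Compound exposure 48 h at 37 °C; viability read by CellTiter-Glo luminescence.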
For test [4], the target named is human Bub1 (Homo sapiens (Human), UniProt O43683). Description: Bub1 high ATP kinase assay (TR-FRET). Format: biochemical. An excerpt: Bub1-inhibitory activity of compounds of the present invention at a high ATP concentration was quantified employing the Bub1 TR-FRET high ATP kinase assay as described in the following paragraphs.
N-terminally His6-tagged recombinant catalytic domain of human Bub1 (amino acids 704-1085), expressed in insect cells (Hi5) and purified by Ni-NTA affinity chromatography and subsequent size exclusion chromatography, was used as enzyme.

The mark [5] stands for this setting: Mus musculus, BaF3, 48 h, read-out: BA/F3 (wild type) IC50, cell viability, Cell Titer-Glo, 48 h, with 10 ng/mL EGF, without IL-3.
Setting [6] is: Mus musculus, BaF3, 48 h, read-out: BA/F3 (insSVD) IC50, cell viability, Cell Titer-Glo, 48 h, with 10 ng/mL EGF, without IL-3.
[7] abbreviates: read-out: Bub1 high ATP (2 mM) IC50, 2 mM ATP.
Setting [8] is: read-out: BA/F3 (wild type) IC50, cell viability, Cell Titer-Glo, 48 h, with 10 ng/mL EGF, without IL-3.
[9] abbreviates: read-out: BA/F3 (insSVD) IC50, cell viability, Cell Titer-Glo, 48 h, with 10 ng/mL EGF, without IL-3.
The mark [10] stands for this setting: Bub1 high ATP (2 mM) IC50, 2 mM ATP.

Where “and” joins values, the source holds several entries; their conditions need not be identical. Equal entries are not always repeated. Where two headings read alike, the source gives them in different places. Some results are limits rather than exact numbers.

Sequence of mutEGFR (D770_N771insSVD) (P00533 other isoform, or with tags, fused parts or gaps ins SVD behind 770): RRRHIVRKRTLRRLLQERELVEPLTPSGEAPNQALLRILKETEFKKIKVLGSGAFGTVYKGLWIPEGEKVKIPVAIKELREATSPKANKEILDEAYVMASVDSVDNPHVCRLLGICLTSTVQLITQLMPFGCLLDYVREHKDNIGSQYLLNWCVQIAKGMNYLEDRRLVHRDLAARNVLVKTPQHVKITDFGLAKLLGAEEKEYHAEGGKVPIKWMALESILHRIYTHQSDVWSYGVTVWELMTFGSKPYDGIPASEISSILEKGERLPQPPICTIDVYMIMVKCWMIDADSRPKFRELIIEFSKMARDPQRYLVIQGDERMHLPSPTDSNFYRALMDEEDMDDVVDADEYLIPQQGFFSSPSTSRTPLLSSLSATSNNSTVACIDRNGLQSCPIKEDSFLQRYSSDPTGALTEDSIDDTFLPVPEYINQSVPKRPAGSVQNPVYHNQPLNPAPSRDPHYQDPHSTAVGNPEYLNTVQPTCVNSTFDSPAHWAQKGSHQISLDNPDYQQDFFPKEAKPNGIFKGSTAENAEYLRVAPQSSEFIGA
Sequence of human Bub1 (O43683 704-1085): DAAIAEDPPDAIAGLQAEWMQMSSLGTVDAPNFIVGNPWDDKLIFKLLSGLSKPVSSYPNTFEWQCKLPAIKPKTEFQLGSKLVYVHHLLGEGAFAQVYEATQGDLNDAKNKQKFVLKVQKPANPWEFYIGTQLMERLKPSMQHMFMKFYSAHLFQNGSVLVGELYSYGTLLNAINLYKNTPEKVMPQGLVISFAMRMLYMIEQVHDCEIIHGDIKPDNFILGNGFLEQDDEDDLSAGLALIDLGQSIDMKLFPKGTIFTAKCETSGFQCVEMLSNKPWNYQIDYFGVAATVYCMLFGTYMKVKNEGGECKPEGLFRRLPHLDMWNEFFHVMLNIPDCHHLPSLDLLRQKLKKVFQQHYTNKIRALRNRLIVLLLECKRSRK

Regarding `COc1c(Cl)cc(F)cc1Nc1c(-c2ccncc2OCC2(C)CCO2)[nH]c2c1C(=O)NCC2` (racemic) [Example 68, 3-(3-chloro-5-fluoro-2-methoxyanilino)-2-(3-{[2-methyloxetan-2-yl]methoxy}pyridin-4-yl)-1,5,6,7-tetrahydro-4H-pyrrolo[3,2-c]pyridin-4-one], the IC50 in test [1] (setting [5]) is 1260 nM; in test [2] it was 0.215 nM; in test [3] (setting [6]) it was 103 nM; in test [4] (setting [7]), above 20000 nM.

For the molecule `Cc1cccc(Nc2c(-c3ccncc3OCC3(C)CCO3)[nH]c3c2C(=O)NCC3)c1Cl` (single isomer, unassigned; (-)) [Example 57, (−)-3-(2-chloro-3-methylanilino)-2-{3-[(2-methyloxetan-2-yl)methoxy]pyridin-4-yl}-1,5,6,7-tetrahydro-4H-pyrrolo[3,2-c]pyridin-4-one], the IC50 came to 3250 nM in test [1] (setting [8]), 0.264 nM in test [2], 402 nM in test [3] (setting [9]) and 13000 nM in test [4] (setting [7]).

Regarding `Cc1c(F)cccc1Nc1c(-c2ccncc2OCC2(C)CCO2)[nH]c2c1C(=O)NCC2` (single isomer, unassigned; (+)) [Example 85, (+)-3-(3-fluoro-2-methylanilino)-2-(3-{[2-methyloxetan-2-yl]methoxy}pyridin-4-yl)-1,5,6,7-tetrahydro-4H-pyrrolo[3,2-c]pyridin-4-one], the IC50 was 1260 nM in test [1] (setting [8]), 0.107 nM in test [2], 43.7 nM in test [3] (setting [9]) and 15800 nM in test [4] (setting [7]).

`CCC1(COc2cnccc2-c2[nH]c3c(c2Nc2cccc(Cl)c2C)C(=O)NCC3)COC1` [Example 23, 3-(3-chloro-2-methylanilino)-2-{3-[(3-ethyloxetan-3-yl)methoxy]pyridin-4-yl}-1,5,6,7-tetrahydro-4H-pyrrolo[3,2-c]pyridin-4-one]: the IC50 in test [1] (setting [5]) is 3380 nM; in test [2], 0.96 nM; in test [3] (setting [6]), 190 nM; in test [4] (setting [7]) it was above 5710 nM.

`CCc1c(Cl)cccc1Nc1c(-c2ccncc2OCC2(C)CCO2)[nH]c2c1C(=O)NCC2` (centres unmarked) [Example 78, 3-(3-chloro-2-ethylanilino)-2-(3-{[2-methyloxetan-2-yl]methoxy}pyridin-4-yl)-1,5,6,7-tetrahydro-4H-pyrrolo[3,2-c]pyridin-4-one]: the IC50 in test [1] (setting [5]) turned out to be 698 nM; in test [2], 0.267 nM; in test [3] (setting [6]), 30.4 nM; in test [4] (setting [7]), 2800 nM.

With `Cc1c(Cl)cccc1Nc1c(-c2ccncc2OCC2(C)CCO2)[nH]c2c1C(=O)NCC2` (racemic) [Example 80, 3-(3-chloro-2-methylanilino)-2-(3-{[2-methyloxetan-2-yl]methoxy}pyridin-4-yl)-1,5,6,7-tetrahydro-4H-pyrrolo[3,2-c]pyridin-4-one], the IC50 amounted to 546 nM in test [1] (setting [5]), 0.187 nM in test [2], 35.2 nM in test [3] (setting [6]) and 6640 nM in test [4] (setting [7]).

Regarding `O=C1NCCc2[nH]c(-c3ccncc3OCC3COC3)c(Nc3cccc(F)c3Cl)c21` [Example 16, 3-(2-chloro-3-fluoroanilino)-2-{3-[(oxetan-3-yl)methoxy]pyridin-4-yl}-1,5,6,7-tetrahydro-4H-pyrrolo[3,2-c]pyridin-4-one], the IC50 amounted to 1140 nM in test [1] (setting [5]), 0.0988 nM in test [2], 193 nM in test [3] (setting [6]) and 13900 nM in test [4] (setting [7]).

`Cc1cccc(Nc2c(-c3ccncc3OCC3(C)CCO3)[nH]c3c2C(=O)NCC3)c1Cl` (single isomer, unassigned; (+)) [Example 56, (+)-3-(2-chloro-3-methylanilino)-2-{3-[(2-methyloxetan-2-yl)methoxy]pyridin-4-yl}-1,5,6,7-tetrahydro-4H-pyrrolo[3,2-c]pyridin-4-one]: the IC50 was 489 nM in test [1] (setting [8]), 0.15 nM in test [2], 35.1 nM in test [3] (setting [9]) and 16100 nM in test [4] (setting [7]).

Consider `Cc1c(F)cccc1Nc1c(-c2ccncc2OCC2(C)CCO2)[nH]c2c1C(=O)NCC2` (single isomer, unassigned; (-)) [Example 84, (−)-3-(3-fluoro-2-methylanilino)-2-(3-{[2-methyloxetan-2-yl]methoxy}pyridin-4-yl)-1,5,6,7-tetrahydro-4H-pyrrolo[3,2-c]pyridin-4-one], for which the IC50 in test [1] (setting [5]) came to 1290 nM; in test [2] it was 0.156 nM; in test [3] (setting [9]), 306 nM; in test [4] (setting [7]), 14900 nM.

Turning to `Cc1c(Cl)cccc1Nc1c(-c2ccncc2OCC2(C)CCO2)[nH]c2c1C(=O)NCC2` (single isomer, unassigned; (-)) [Example 81, (−)-3-(3-chloro-2-methylanilino)-2-(3-{[2-methyloxetan-2-yl]methoxy}pyridin-4-yl)-1,5,6,7-tetrahydro-4H-pyrrolo[3,2-c]pyridin-4-one], the IC50 in test [1] (setting [5]) is 664 nM; in test [2], 0.129 nM; in test [3] (setting [6]), 96.4 nM; in test [4] (setting [7]) it was 5050 nM.

Regarding `Cc1c(Cl)cccc1Nc1c(-c2ccncc2OC[C@]2(C)CCO2)[nH]c2c1C(=O)NCC2` (single isomer, unassigned) [Example 82, (+)-3-(3-chloro-2-methylanilino)-2-(3-{[2-methyloxetan-2-yl]methoxy}pyridin-4-yl)-1,5,6,7-tetrahydro-4H-pyrrolo[3,2-c]pyridin-4-one], the IC50 in test [1] (setting [5]) was found to be 673 nM; in test [2] it was 0.134 nM; in test [3] (setting [6]), 34.8 nM; in test [4] (setting [7]), 5980 nM.

On to `COc1c(Cl)cc(F)cc1Nc1c(-c2ccncc2OCC2(C)CCO2)[nH]c2c1C(=O)NCC2` (single isomer, unassigned) [Example 70, 3-(3-chloro-5-fluoro-2-methoxyanilino)-2-(3-{[2-methyloxetan-2-yl]methoxy}pyridin-4-yl)-1,5,6,7-tetrahydro-4H-pyrrolo[3,2-c]pyridin-4-one], for which the IC50 was 537 nM in test [1] (setting [8]); 0.161 nM in test [2]; 32.7 nM in test [3] (setting [9]); 18800 nM and > 20000 nM in test [4] (setting [10]).

As to `CCC1(COc2cnccc2-c2[nH]c3c(c2Nc2cccc(C)c2Cl)C(=O)NCC3)COC1` [Example 86, 3-(2-chloro-3-methylanilino)-2-{3-[(3-ethyloxetan-3-yl)methoxy]pyridin-4-yl}-1,5,6,7-tetrahydro-4H-pyrrolo[3,2-c]pyridin-4-one], the IC50 was 899 nM in test [1] (setting [5]), 0.187 nM in test [2], 255 nM in test [3] (setting [6]) and above 5700 nM in test [4] (setting [7]).

Consider `CCC1(COc2cnccc2-c2[nH]c3c(c2Nc2cccc(F)c2OC)C(=O)NCC3)COC1` [Example 88, 2-{3-[(3-ethyloxetan-3-yl)methoxy]pyridin-4-yl}-3-(3-fluoro-2-methoxyanilino)-1,5,6,7-tetrahydro-4H-pyrrolo[3,2-c]pyridin-4-one], for which the IC50 in test [1] (setting [5]) was found to be 1130 nM; in test [2], 0.0873 nM; in test [3] (setting [6]), 66.8 nM; in test [4] (setting [7]), 7490 nM.

As to `Cc1cccc(Nc2c(-c3ccncc3OCC3(C)CCO3)[nH]c3c2C(=O)NCC3)c1Cl` (racemic) [Example 55, 3-(2-chloro-3-methylanilino)-2-{3-[(2-methyloxetan-2-yl)methoxy]pyridin-4-yl}-1,5,6,7-tetrahydro-4H-pyrrolo[3,2-c]pyridin-4-one], the IC50 is 593 nM in test [1] (setting [5]), 0.138 nM in test [2], 67.3 nM in test [3] (setting [6]) and 15400 nM in test [4] (setting [7]).

With `COc1c(Cl)cc(F)cc1Nc1c(-c2ccncc2OCC2(C)CCO2)[nH]c2c1C(=O)NCC2` (single isomer, unassigned) [Example 69, 3-(3-chloro-5-fluoro-2-methoxyanilino)-2-(3-{[2-methyloxetan-2-yl]methoxy}pyridin-4-yl)-1,5,6,7-tetrahydro-4H-pyrrolo[3,2-c]pyridin-4-one], the IC50 in test [1] (setting [8]) amounted to 1430 nM; in test [2] it was 0.317 nM; in test [3] (setting [9]), 241 nM; in test [4] (setting [10]), 13500 nM.

On to `Cc1c(F)cccc1Nc1c(-c2ccncc2OCC2(C)CCO2)[nH]c2c1C(=O)NCC2` (racemic) [Example 83, 3-(3-fluoro-2-methylanilino)-2-(3-{[2-methyloxetan-2-yl]methoxy}pyridin-4-yl)-1,5,6,7-tetrahydro-4H-pyrrolo[3,2-c]pyridin-4-one], for which the IC50 is 986 nM in test [1] (setting [5]), 0.246 nM in test [2], 41.9 nM in test [3] (setting [6]) and above 20000 nM in test [4] (setting [7]).
